Results reported in PMC7156458, “Synthetic biology based construction of biological activity-related library of fungal decalin-containing diterpenoid pyrones” (Nature Communications, 2020).
Several values for one entry are separate records, joined by “and”; a condition that tells them apart may be missing. Identical values can stand only once.

Columns and labels:
[1] = target: Aβ42 (Homo sapiens, UniProt P05067); assay: LC/Q Tof-MS detection of Aβ42 adducts; format: binding; settings: 1 h incubation at room temperature
Aβ42, sequence (P05067 672-713): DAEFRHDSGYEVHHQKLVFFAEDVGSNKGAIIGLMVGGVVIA
Method: To further analyse the inhibitory mechanism, we subjected a mixture of Aβ42 and 21 after 1 h of incubation at room temperature to liquid chromatography/quadrupole time-of-flight mass spectrometry (LC/Q Tof-MS). […] To identify the specific amino acids involved in the interaction of 21 with the Aβ monomer, we performed LC–MS/MS analysis with collision-induced dissociation (CID) using E22P, M35ox-Aβ9-35 as a toxic conformer surrogate[66],[67]. Based on a large number of fragmented b ions and y ions, Lys16 in Aβ42 ([…]) seemed to be one of the target amino acid residues of 21 (Supplementary Fig. 50).
Device; UPLC H-class with Xevo G2-S Qtof (Waters) 3.44e7 […]
in 50% CH3CN containing 0.01%NH4OH, incubated for 1 h at 23 °C […]
Capillary voltage; 3.0 kv 16.07
WT-A!42+ compound 21 1: TOF MS ES+
ْMeasurement conditionٓ 2.25e7
Device; UPLC H-class with Xevo G2-S Qtof (Waters)
Capillary voltage; 3.0 kv
WT-A!42 + compound 21 Mass spectrum […]
Supplementary Fig. 48. Comparison of LC-MS data, a, compound 20 was incubated with wt-Aβ42 and analyzed by LC-MS, whereas no peak originated from their adducts was observed. b, compound 21 was incubated with Aβ42 and analyzed by LC-MS, and their Michael adducts were observed around 9 min. c, ESI mass spectra of the Michael adducts between Aβ42 and compound 21. d, Deconvolution Mass spectrum of a Michael adduct observed at 8.944 min. […]

[2] = system: ALDH-positive cells in MCF-7 cells; assay: ALDH-positive cell population (ALDEFLUOR, flow cytometry); format: cell-based, human; settings: for ALDH (+) Cell number (10^4 cells) ave: 0 µM 1.61; for ALDH (-) Cell number (10^4 cells) ave: 0 µM 133.39; for ALDH (+) Cell number ave (fold) / ALDH (-) Cell number ave (fold): 0 µM = 1; for ALDH (+) Cell number (10^4 cells) / ALDH (-) Cell number (10^4 cells) / ALDH-positive cells (%): single replicates; for population of ALDH-positive cells / ALDH-positive cells ave (fold) / ALDH-positive cells ave / ALDH-positive cells (%): MCF-7, 1 μM; for ALDH-positive cells ave (fold) / ALDH-positive cells ave / ALDH-positive cells (%): 3 days; for ALDH-positive cells ave (fold): control = 1; for ALDH-positive cells ave: mean of 3, control 1.4
Method: We also evaluated antiproliferative activity against cancer stem cells (CSCs), which are a small sub-population in tumour bulk identified in most cancer cells and clinical samples[52]. CSCs have been a major problem in cancer therapy because they are responsible for recurrence, metastasis and drug resistance to chemotherapeutic agents that affect proliferative cells[53]–[56]. Anti-CSC activity was evaluated by the inhibition of sphere-forming ability, a well-studied method to enrich the CSC-like population, and selective cytotoxicity against one of the most reliable CSC markers, aldehyde dehydrogenase (ALDH)-positive cells. […] Low-toxicity 16 was also added as a negative control. […] We next evaluated the three DDPs that inhibited mammosphere formations against ALDH-positive cells, a functional marker for breast CSCs. MCF-7 cells were treated with 1 μM of 11, 12 or 22, and the ALDH-positive cell population was analysed by using a fluorescence activated cell sorter (Supplementary Fig. 46b). […] Thus, for the first time, we successfully found DDPs with potent antiproliferative effects on the CSC-like population in MCF-7 cells, which may lead to new anti-CSC drugs.
Fig. 5 DDPs show anti-CSC activity in breast cancer cell line MCF-7. a Effect of DDPs on mammosphere formation. After the cells were cultured in the presence of 5 μM DDPs for 7 days, the number of mammospheres was microscopically counted and the percentage of mammosphere-forming cells was determined as mammosphere-forming efficiency (MFE; %). Data represent mean ± s.d. from three independent replicate experiments. P-values were calculated by a two-sided unpaired Student’s t-test, compared with control. b Micrographs show representative images of mammosphere formation from three independent replicate experiments using compound 11, 12, 16, 22. The scale bar, […]. c Effect of DDPs (1 μM, 3 days) on ALDH-positive cells in MCF-7 cells. Data represent mean ± s.d. from three independent replicate experiments. P-values were calculated by a two-sided unpaired Student’s t-test, compared with control. d Dose-dependent effect of compound 12 on ALDH-positive cells in MCF-7 cells. Data represent mean ± s.d. from three independent replicate experiments. P-values were calculated by a two-sided unpaired Student’s t-test. Source data underlying Fig. 5a, c, d are provided in a Source Data file.
!" ' ' '! !" ' ' '! !" ' ' '!!" ' ' '!!" ' ' '!!" ' ' '!!" ' ' '!!" ' ' '! !" ' ' '! !" ' ' '! !" ' ' '! !"#$ ( % ) * '! '' '# '+ '$ '( '% […]
Main population Single cells Single cells
(negative control) Without DEAB […]
P-values are calculated using a two-sided unpaired Student’s t-test; * p < 0.05, ** p < 0.01, compared with control. b, Gating strategy of flow cytometry analysis for detecting ALDH-positive cells. All samples were analyzed by sequential gating including main population (G1), single cells (G2, G3). Negative control with DEAB was used to establish G4 (ALDH-negative cells) and G5 (ALDH-positive cells). […]
Policy information about cell lines […]
were distributed from National Cancer Institute (Frederick, MD). HT-29, MCF-7, DU-145 and PC-3 were purchased from […]

C=C1CC[C@@H]2[C@](C)(CC[C@H]3O[C@H](C=C(C)C)C[C@@]23C)[C@@H]1Cc1c(OC)oc(CO)c(C(=O)OC)c1=O [Compound 21]
Aβ42 adduct formation [1]: adducts were detected

C=C1CCC2C(C)(CCC=C(C)C)C(O)CCC2(C)C1Cc1c(OC)oc(CO)c(C)c1=O (stereo not drawn) [Compound 12]
ALDH (+) Cell number (10^4 cells) ave ([2]; MCF-7, 0.1 µM): 0.68 10^4 cells | ALDH (-) Cell number (10^4 cells) ave ([2]; MCF-7, 0.1 µM): 96.66 10^4 cells | ALDH (+) Cell number ave (fold) ([2]; MCF-7, 0.1 µM): 0.42 fold | ALDH (-) Cell number ave (fold) ([2]; MCF-7, 0.1 µM): 0.72 fold | ALDH (+) Cell number (10^4 cells) ([2]; MCF-7, 0.1 µM): 0.81 10^4 cells and 0.72 10^4 cells and 0.50 10^4 cells | ALDH (-) Cell number (10^4 cells) ([2]; MCF-7, 0.1 µM): 89.19 10^4 cells and 102.28 10^4 cells and 98.51 10^4 cells | ALDH (+) Cell number (10^4 cells) ave ([2]; MCF-7, 0.3 µM): 0.09 10^4 cells | ALDH (-) Cell number (10^4 cells) ave ([2]; MCF-7, 0.3 µM): 33.24 10^4 cells | ALDH (+) Cell number ave (fold) ([2]; MCF-7, 0.3 µM): 0.0565 fold | ALDH (-) Cell number ave (fold) ([2]; MCF-7, 0.3 µM): 0.25 fold | ALDH (+) Cell number (10^4 cells) ([2]; MCF-7, 0.3 µM): 0.054 10^4 cells and 0.12 10^4 cells and 0.10 10^4 cells | ALDH (-) Cell number (10^4 cells) ([2]; MCF-7, 0.3 µM): 26.95 10^4 cells and 38.88 10^4 cells and 33.90 10^4 cells | population of ALDH-positive cells [2]: reduced the population of ALDH-positive cells | ALDH-positive cells ave (fold) [2]: 0.29 fold | ALDH-positive cells ave [2]: 0.40% | ALDH-positive cells (%) [2]: 0.4% and 0.6% and 0.2% | ALDH (+) Cell number (10^4 cells) ave ([2]; MCF-7, 1 µM): 0.09 10^4 cells | ALDH (-) Cell number (10^4 cells) ave ([2]; MCF-7, 1 µM): 23.57 10^4 cells | ALDH (+) Cell number ave (fold) ([2]; MCF-7, 1 µM): 0.06 fold | ALDH (-) Cell number ave (fold) ([2]; MCF-7, 1 µM): 0.18 fold | ALDH (+) Cell number (10^4 cells) ([2]; MCF-7, 1 µM): 0.14 10^4 cells and 0.08 10^4 cells and 0.05 10^4 cells | ALDH (-) Cell number (10^4 cells) ([2]; MCF-7, 1 µM): 23.86 10^4 cells and 20.92 10^4 cells and 25.95 10^4 cells | cytotoxicity against ALDH-positive cells ([2]; MCF-7, lower concentrations): selective and potent cytotoxicity against ALDH-positive cells

C=C1CCC2C(C)(CCC=C(C)C)C(O)CCC2(C)C1Cc1c(OC)oc(C)c(C)c1=O (stereo not drawn) [Compound 11]
population of ALDH-positive cells [2]: reduced the population of ALDH-positive cells | ALDH-positive cells ave (fold) [2]: 0.40 fold | ALDH-positive cells ave [2]: 0.57% | ALDH-positive cells (%) [2]: 0.4% and 0.9%

C=C1CC[C@@H]2[C@](C)(CC[C@H]3O[C@H](C=C(C)C)C[C@@]23C)[C@@H]1Cc1c(OC)oc(CO)c(C)c1=O [Compound 20]
Aβ42 adduct formation [1]: no such adduct was found

C=C1CC[C@@H]2[C@](C)(CC[C@H]3O[C@H](C=C(C)C)C[C@@]23C)[C@@H]1Cc1c(OC)oc(C)c(C)c1=O [Compound 22, O-methylated higginsianin A]
population of ALDH-positive cells [2]: reduced the population of ALDH-positive cells | ALDH-positive cells ave (fold) [2]: 0.38 fold | ALDH-positive cells ave [2]: 0.53% | ALDH-positive cells (%) [2]: 0.4% and 0.5% and 0.7%
